Experimental data taken from patent publication US20240398812A1 (Caraway Therapeutics, Inc., priority 2021, published 2024).

Columns and labels:
TRPML3 = molecular target: T1, TRPML3 (Homo sapiens, UniProt Q8TDD5); assay: Fluorescent TRPML3 assay (as for TRPML1); type: cell-based
T1 construct: expressed in transfected cells
T1 sequence (Q8TDD5 1-553): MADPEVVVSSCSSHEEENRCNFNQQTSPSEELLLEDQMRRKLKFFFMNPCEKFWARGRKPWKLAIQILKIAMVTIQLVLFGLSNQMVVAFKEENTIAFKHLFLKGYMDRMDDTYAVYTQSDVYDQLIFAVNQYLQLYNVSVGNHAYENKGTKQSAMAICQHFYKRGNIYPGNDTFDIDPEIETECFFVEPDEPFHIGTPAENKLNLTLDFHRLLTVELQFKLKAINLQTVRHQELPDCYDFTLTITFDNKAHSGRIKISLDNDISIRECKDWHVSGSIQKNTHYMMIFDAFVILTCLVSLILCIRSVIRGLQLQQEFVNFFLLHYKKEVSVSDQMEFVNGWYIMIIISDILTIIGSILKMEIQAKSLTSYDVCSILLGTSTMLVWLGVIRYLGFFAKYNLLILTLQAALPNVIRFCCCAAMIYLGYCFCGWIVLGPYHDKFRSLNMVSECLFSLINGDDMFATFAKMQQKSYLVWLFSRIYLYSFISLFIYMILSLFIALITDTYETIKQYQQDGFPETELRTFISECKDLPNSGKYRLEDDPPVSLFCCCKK
Procedure: (§1) HEK-293 Trex cells were stably transfected with a construct consisting of the human coding sequence for TRPML1 cloned into the tet-inducible plasmid pCDNA5 T/O. Mutations were introduced into the TRPML1 sequence to facilitate expression on the cell surface (Silvia Vergarajauregui, Rosa Puertollano Traffic. 2006 March; 7 (3): 337-353). Briefly, the cells are cultured in 150 mm round tissue culture dishes containing 20 mL of media. The day before the assay the cells are rinsed with DPBS —Ca—Mg and then treated briefly with Trypsin-EDTA. The Trypsin-EDTA is diluted with growth media, and cells are counted. 38×10^6 cells are re-plated into 150 mm round tissue culture dishes in media containing 0.5 ug/mL doxycycline to induce expression of hTRPML1.
(§2) The day of the experiment cells are lifted from the plates as above and collected by centrifugation. The cells are then suspended in dye loading buffer consisting of Ringer's solution supplemented with 0.1% Pluronic Acid and 1 micromolar Fluo4-AM dye. Cells are loaded for ˜60 minutes in the dark with occasional mixing. The cells are collected by centrifugation, the loading media aspirated, and the cells resuspended in 25 mL Ringer's solution and incubated ˜60 minutes in the dark. The cells are again collected by centrifugation, rinsed in Ringer's Solution and resuspended to 0.2×10^6 cells/mL in modified Ringer's solution containing 10 mM calcium.
(§3) Compounds are dissolved to a concentration of 10 millimolar with DMSO. Compound plates are created by dispensing compounds into 384 well black wall clear bottom plates (Greiner 781091). Positive and negative controls are included on each plate. Typically, different amounts of each compound are tested ranging from 100 nanoMoles (20 micromolar final concentration) decreasing in half-log steps to 31 picoMoles (6 nanomolar final concentration). Each concentration is typically tested in triplicate.
(§4) 50 microliters of dye-loaded cells are dispensed into each well of the compound assay plate created above. The fluorescence in each well is then determined with an excitation wavelength of 480 nm and an emission wavelength of 540 nm using either a Molecular Devices SpectraMax multimode plate reader or a Hamamatsu FDSS/uCell plate imager.
(§5) The resulting fluorescence for each well is exported as an ascii file and loaded into our LIMS for analysis. The percent activity of each compound at each concentration is determined by comparison to the positive and negative control wells included in each plate.
Assays for TRPML2 and TRPML3 were performed as above for TRPML1, by substituting the appropriate TRPML2 or TRPML3 subtype for the TRPML1.
(§6) EC50 values were calculated using a non-linear regression of Prism. In the table, “A” indicates an EC50 of less than 100 nM, “B” indicates an EC50 range from 100 nM to 500 nM; “C” indicates an EC50 range from 500 nM to 2 μM; and “D” indicates an EC50 greater than 2 μM.

human TRPML1 = human TRPML1 (Homo sapiens, UniProt Q9GZU1); assay: Fluorescent TRPML1 assay (Fluo4-AM calcium fluorescence, HEK-293 Trex cells); type: cell-based
human TRPML1, sequence (Q9GZU1 whole entry L15A/L16A/L577A/L578A, form open): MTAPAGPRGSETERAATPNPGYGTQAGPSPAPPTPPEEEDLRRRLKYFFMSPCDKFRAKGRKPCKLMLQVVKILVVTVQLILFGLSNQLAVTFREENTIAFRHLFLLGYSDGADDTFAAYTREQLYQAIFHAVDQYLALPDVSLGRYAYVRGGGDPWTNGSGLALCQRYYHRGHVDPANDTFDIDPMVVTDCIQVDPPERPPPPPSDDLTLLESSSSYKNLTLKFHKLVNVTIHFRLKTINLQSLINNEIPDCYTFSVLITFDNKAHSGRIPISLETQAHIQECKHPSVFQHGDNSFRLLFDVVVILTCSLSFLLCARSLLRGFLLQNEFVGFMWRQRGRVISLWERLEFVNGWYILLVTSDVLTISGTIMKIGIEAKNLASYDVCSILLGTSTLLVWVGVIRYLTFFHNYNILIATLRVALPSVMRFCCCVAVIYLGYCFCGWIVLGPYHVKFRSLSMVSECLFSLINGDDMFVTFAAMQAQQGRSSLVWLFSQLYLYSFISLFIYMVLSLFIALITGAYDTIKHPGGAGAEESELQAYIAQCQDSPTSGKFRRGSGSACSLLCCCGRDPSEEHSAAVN
Procedure: as §1, §2, §3, §4, §5, §6

EC50 (TRPML3; Table 3, compounds 101-177) [nM] | EC50 (human TRPML1; Table 3, compounds 101-177) [nM] | EC50 (TRPML3; Table 3, compounds 201-283) [nM] | EC50 (human TRPML1; Table 3, compounds 201-283) [nM] | Structure (SMILES)
500 to 2000 | 500 to 2000 | – | – | CCN(CC)c1cn(-c2cccc(Cl)c2)c2ncnc(N3CCN(C(=O)C(C)C)C[C@@H]3C)c12 [Compound 147, (S)-1-(4-(7-(3-chlorophenyl)-5-(diethylamino)-7H-pyrrolo[2,3-d]pyrimidin-4-yl)-3-methylpiperazin-1-yl)-2-methylpropan-1-one]
< 100 | < 100 | – | – | C[C@H]1CN(C(=O)C2CC2)CCN1c1ncnc2c1c(-c1ccccc1F)cn2-c1cc(C#N)ccn1 [Compound 105, (S)-2-(4-(4-(cyclopropanecarbonyl)-2-methylpiperazin-1-yl)-5-(2-fluorophenyl)-7H-pyrrolo[2,3-d]pyrimidin-7-yl)isonicotinonitrile]
– | – | < 100 | < 100 | C[C@@H]1CN(c2nccc3c2c(N2CCC2)cn3-c2cccc(F)c2)[C@@H](C)CN1C(=O)C(C)(C)C [Compound 226, 1-((2R,5S)-4-(3-(azetidin-1-yl)-1-(3-fluorophenyl)-1H-pyrrolo[3,2-c]pyridin-4-yl)-2,5-dimethylpiperazin-1-yl)-2,2-dimethylpropan-1-one]
100 to 500 | < 100 | – | – | CC(F)C(=O)N1CCN(c2ncnc3c2c(-c2ccccc2F)cn3-c2cc(C#N)ccn2)[C@@H](C)C1 (stereo partly drawn) [Compound 113, 2-(5-(2-fluorophenyl)-4-((2S)-4-(2-fluoropropanoyl)-2-methylpiperazin-1-yl)-7H-pyrrolo[2,3-d]pyrimidin-7-yl)isonicotinonitrile]
100 to 500 | < 100 | – | – | CCCN(CC)c1cn(-c2cc(C#N)ccn2)c2ncnc(N3CCN(C(=O)C(C)C)C[C@@H]3C)c12 [Compound 163, (S)-2-(5-(ethyl(propyl)amino)-4-(4-isobutyryl-2-methylpiperazin-1-yl)-7H-pyrrolo[2,3-d]pyrimidin-7-yl)isonicotinonitrile]
100 to 500 | < 100 | – | – | C[C@@H]1CN(c2ncnc3c2c(-c2ccccc2F)cn3-c2cc(F)ccn2)[C@@H](C)CN1C(=O)C(C)(C)O [Compound 169, 1-((2R,5S)-4-(5-(2-fluorophenyl)-7-(4-fluoropyridin-2-yl)-7H-pyrrolo[2,3-d]pyrimidin-4-yl)-2,5-dimethylpiperazin-1-yl)-2-hydroxy-2-methylpropan-1-one]
– | – | > 2000 | > 2000 | CC(C)C(=O)N1CCN(c2ncnc3c(-c4cc(C#N)ccn4)cn(-c4ccccn4)c23)[C@@H](C)C1 [Compound 211, (S)-2-(4-(4-isobutyryl-2-methylpiperazin-1-yl)-5-(pyridin-2-yl)-5H-pyrrolo[3,2-d]pyrimidin-7-yl)isonicotinonitrile]
500 to 2000 | 100 to 500 | – | – | C[C@H]1CN(C(=O)C(C)(C)O)CCN1c1ncnc2c1c(N1CCC1)cn2-c1cc(C#N)ccn1 [Compound 162, (S)-2-(5-(azetidin-1-yl)-4-(4-(2-hydroxy-2-methylpropanoyl)-2-methylpiperazin-1-yl)-7H-pyrrolo[2,3-d]pyrimidin-7-yl)isonicotinonitrile]
– | – | 100 to 500 | < 100 | COC1(C(=O)N2CCN(c3ncnc4c3c(-c3ccccc3F)cn4-c3cc(C#N)ccn3)[C@@H](C)C2)CC1 [Compound 243, (S)-2-(5-(2-fluorophenyl)-4-(4-(1-methoxycyclopropane-1-carbonyl)-2-methylpiperazin-1-yl)-7H-pyrrolo[2,3-d]pyrimidin-7-yl)isonicotinonitrile]
< 100 | < 100 | – | – | C[C@H]1CN(C(=O)C(C)(C)F)CCN1c1ncnc2c1c(C1CC1)cn2-c1cc(C#N)ccn1 [Compound 114, (S)-2-(5-cyclopropyl-4-(4-(2-fluoro-2-methylpropanoyl)-2-methylpiperazin-1-yl)-7H-pyrrolo[2,3-d]pyrimidin-7-yl)isonicotinonitrile]
500 to 2000 | 500 to 2000 | – | – | CC(C)C(=O)N1CCN(c2ncnc3c2c(-c2ccccn2)cn3-c2cc(C#N)ccn2)C[C@H]1C [Compound 132, (R)-2-(4-(4-isobutyryl-3-methylpiperazin-1-yl)-5-(pyridin-2-yl)-7H-pyrrolo[2,3-d]pyrimidin-7-yl)isonicotinonitrile]
> 2000 | 500 to 2000 | – | – | Cc1nccnc1-c1cn(-c2cccc(Cl)c2)c2ncnc(N3C[C@@H](C)N(C(=O)CC(C)C)C[C@@H]3C)c12 [Compound 176, 1-((2R,5S)-4-(7-(3-chlorophenyl)-5-(3-methylpyrazin-2-yl)-7H-pyrrolo[2,3-d]pyrimidin-4-yl)-2,5-dimethylpiperazin-1-yl)-3-methylbutan-1-one]
< 100 | < 100 | – | – | CCCN(CC)c1cn(-c2cc(C#N)ccn2)c2ncnc(N3CCN(C(=O)C(C)(C)C)C[C@@H]3C)c12 [Compound 164]
– | – | 500 to 2000 | 100 to 500 | C[C@@H]1CN(c2ncnc3c2c(C2CCC2)cn3-c2cccc(F)c2)[C@@H](C)CN1C(=O)C1(F)CC1 [Compound 249, ((2R,5S)-4-(5-cyclobutyl-7-(3-fluorophenyl)-7H-pyrrolo[2,3-d]pyrimidin-4-yl)-2,5-dimethylpiperazin-1-yl)(1-fluorocyclopropyl)methanone]
< 100 | < 100 | – | – | CC(C)C(=O)N1C[C@H](C)N(c2ncnc3c2c(-c2ccccc2F)cn3-c2cc(F)ccn2)C[C@H]1C [Compound 167, 1-((2R,5S)-4-(5-(2-fluorophenyl)-7-(4-fluoropyridin-2-yl)-7H-pyrrolo[2,3-d]pyrimidin-4-yl)-2,5-dimethylpiperazin-1-yl)-2-methylpropan-1-one]
100 to 500 | 100 to 500 | – | – | C[C@H]1CN(C(=O)C2CC2)CCN1c1ncnc2c1c(-c1ccccc1)cn2-c1cc(C#N)ccn1 [Compound 123, (S)-2-(4-(4-(cyclopropanecarbonyl)-2-methylpiperazin-1-yl)-5-phenyl-7H-pyrrolo[2,3-d]pyrimidin-7-yl)isonicotinonitrile]
– | – | 500 to 2000 | < 100 | C[C@@H]1CN(c2ncnc3c2c(C(F)(F)F)cn3-c2cncc(C#N)c2)[C@@H](C)CN1C(=O)C(C)(C)C [Compound 224, 5-(4-((2S,5R)-2,5-dimethyl-4-pivaloylpiperazin-1-yl)-5-(trifluoromethyl)-7H-pyrrolo[2,3-d]pyrimidin-7-yl)nicotinonitrile]
> 2000 | 500 to 2000 | – | – | Cc1nccnc1-c1cn(-c2cc(F)cc(F)c2)c2ncnc(N3C[C@@H](C)N(C(=O)CC(C)C)C[C@@H]3C)c12 [Compound 177, 1-((2R,5S)-4-(7-(3,5-difluorophenyl)-5-(3-methylpyrazin-2-yl)-7H-pyrrolo[2,3-d]pyrimidin-4-yl)-2,5-dimethylpiperazin-1-yl)-3-methylbutan-1-one]
500 to 2000 | 500 to 2000 | – | – | CC(C)C(=O)N1CCN(c2ncnc3c2c(-c2ccccc2F)cn3-c2nccc(C#N)n2)[C@@H](C)C1 [Compound 156, (S)-2-(5-(2-fluorophenyl)-4-(4-isobutyryl-2-methylpiperazin-1-yl)-7H-pyrrolo[2,3-d]pyrimidin-7-yl)pyrimidine-4-carbonitrile]
– | – | < 100 | < 100 | CC(C)C(=O)N1CCN(c2ncnc3c2c(N2CCC2)cn3-c2cc(C#N)ccn2)C[C@H]1C [Compound 273, (R)-2-(5-(azetidin-1-yl)-4-(4-isobutyryl-3-methylpiperazin-1-yl)-7H-pyrrolo[2,3-d]pyrimidin-7-yl)isonicotinonitrile]
